Here are results for 26 molecules from US9260425B2 (Genetech, Inc., priority 2011, dated 2016).

pKi: −log10 of the molar value.

By pKi is commonly meant the negative decadic logarithm of the Ki, by convention in mol/L.

Sequence of Pim-1 (P11309 whole entry): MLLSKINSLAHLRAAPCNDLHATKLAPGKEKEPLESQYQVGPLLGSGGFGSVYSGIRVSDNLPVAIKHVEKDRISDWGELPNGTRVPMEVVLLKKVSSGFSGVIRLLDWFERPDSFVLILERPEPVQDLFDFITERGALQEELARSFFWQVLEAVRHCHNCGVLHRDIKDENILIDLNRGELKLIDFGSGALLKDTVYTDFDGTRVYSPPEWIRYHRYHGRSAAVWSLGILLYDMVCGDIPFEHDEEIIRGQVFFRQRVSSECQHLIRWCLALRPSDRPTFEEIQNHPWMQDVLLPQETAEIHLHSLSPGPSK

In the assay the target is Pim-1 (Homo sapiens (Human), UniProt P11309). The assay is described as follows: Pim kinase binding activity assay (Example 901), PIM-1 enzyme, Caliper microfluidic peptide phosphorylation. The format is biochemical. To be noted: 20 pM PIM-1, 10 μM ATP, 1 μM FAM-peptide, 90 minutes at room temperature. Put shortly:
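The readout was microfluidic mobility-shift separation of a FAM-tagged Pim-specific peptide, excited at 488 nm and read at 530 nm, with Ki calculated from percent conversion. Reactions held 20 pM PIM-1, 1 μM peptide and 10 μM ATP in pH 7.2 HEPES/MgCl2/DTT buffer, ran 90 min at room temperature and were stopped with EDTA.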
With `Cn1cc(-c2cc3c(-c4cccc(-c5cnn(C)c5)n4)n[nH]c3cn2)cn1` [Example 184, 5-(1-methyl-1H-pyrazol-4-yl)-3-(6-(1-methyl-1H-pyrazol-4-yl)pyridin-2-yl)-1H-pyrazolo[3,4-c]pyridine], the pKi is 9.30. Molecule `N[C@@H]1CCCN(c2nc(-c3n[nH]c4cnc(-c5cccnc5)cc34)ccc2Cl)C1` [Example 266, (R)-1-(3-chloro-6-(5-(pyridin-3-yl)-1H-pyrazolo[3,4-c]pyridin-3-yl)pyridin-2-yl)piperidin-3-amine] had a pKi of 10.22. To `CCn1cc(-c2cc3c(-c4ccc(C)c(N5CCC[C@@H](N)C5)n4)n[nH]c3cn2)cn1` [Example 443, (R)-1-(6-(5-(1-ethyl-1H-pyrazol-4-yl)-1H-pyrazolo[3,4-c]pyridin-3-yl)-3-methylpyridin-2-yl)piperidin-3-amine] belongs 10.00; to `Cn1cc(-c2cc3c(-c4cccc(N5CCC(CN)CC5)n4)n[nH]c3cn2)cn1` [Example 182, (1-(6-(5-(1-methyl-1H-pyrazol-4-yl)-1H-pyrazolo[3,4-c]pyridin-3-yl)pyridin-2-yl)piperidin-4-yl)methanamine], 10.07. The molecule `FC1(c2cccc(-c3n[nH]c4cnc(-c5cccnc5)cc34)n2)CCNCC1` [Example 421, 3-(6-(4-fluoropiperidin-4-yl)pyridin-2-yl)-5-(pyridin-3-yl)-1H-pyrazolo[3,4-c]pyridine] gave a pKi of 9.98. To `CN1CCN(c2cc3c(-c4cccc(N5CCNCC5)n4)n[nH]c3cn2)CC1=O` [Example 223, 1-methyl-4-(3-(6-(piperazin-1-yl)pyridin-2-yl)-1H-pyrazolo[3,4-c]pyridin-5-yl)piperazin-2-one] belongs 7.41; to `Cn1cc(-c2cc3c(-c4cccc(N5CCNCC5)n4)n[nH]c3cn2)cn1` [Example 234, 5-(1-methyl-1H-pyrazol-4-yl)-3-(6-(piperazin-1-yl)pyridin-2-yl)-1H-pyrazolo[3,4-c]pyridine], 10.44; to `CCn1cc(-c2cc3c(-c4ccc(Br)c(N5CCNCC5)n4)n[nH]c3cn2)cn1` [Example 404, 3-(5-bromo-6-(piperazin-1-yl)pyridin-2-yl)-5-(1-ethyl-1H-pyrazol-4-yl)-1H-pyrazolo[3,4-c]pyridine], 10.05. In turn, `N[C@H]1CCCC(Nc2cccc(-c3n[nH]c4cnc(-c5cccnc5)cc34)n2)C1` (stereo in doubt) [Example 245, (1S,3S)—N1-(6-(5-(pyridin-3-yl)-1H-pyrazolo[3,4-c]pyridin-3-yl)pyridin-2-yl)cyclohexane-1,3-diamine] showed a negative-log Ki (pKi) of 11.10. To `N[C@@H]1CCCN(c2nccc(-c3n[nH]c4cnc(-c5cccnc5)cc34)n2)C1` [Example 300, (R)-1-(4-(5-(pyridin-3-yl)-1H-pyrazolo[3,4-c]pyridin-3-yl)pyrimidin-2-yl)piperidin-3-amine] belongs 10.15; to `Cc1n[nH]c2cnc(-c3cncc(N4CCC[C@H](N)C4)n3)cc12` [Example 120, (S)-1-(6-(3-methyl-1H-pyrazolo[3,4-c]pyridin-5-yl)pyrazin-2-yl)piperidin-3-amine], 8.32. To `Cn1cc(-c2cc3c(-c4cccc(N5CCC(N)CC5)n4)n[nH]c3cn2)cn1` [Example 174, 1-(6-(5-(1-methyl-1H-pyrazol-4-yl)-1H-pyrazolo[3,4-c]pyridin-3-yl)pyridin-2-yl)piperidin-4-amine] belongs 10.07; to `CCc1ccc(-c2n[nH]c3cnc(-c4cccnc4)cc23)nc1N1CCC[C@H](N)C1` [Example 327, (S)-1-(3-ethyl-6-(5-(pyridin-3-yl)-1H-pyrazolo[3,4-c]pyridin-3-yl)pyridin-2-yl)piperidin-3-amine], 10.46. As for `C1=C(c2n[nH]c3cnc(-c4cccnc4)cc23)CCO1` [Example 284, 3-(4,5-dihydrofuran-3-yl)-5-(pyridin-3-yl)-1H-pyrazolo[3,4-c]pyridine], the figure is 7.97; as for `OC1CCN(c2nc(-c3n[nH]c4cnc(-c5cccnc5)cc34)ccc2Br)CC1` [Example 292, 1-(3-bromo-6-(5-(pyridin-3-yl)-1H-pyrazolo[3,4-c]pyridin-3-yl)pyridin-2-yl)piperidin-4-ol], 9.74. With `O=C1OCCN1c1cc2c(-c3cccc(N4CCNCC4)n3)n[nH]c2cn1` [Example 415, 3-(3-(6-(piperazin-1-yl)pyridin-2-yl)-1H-pyrazolo[3,4-c]pyridin-5-yl)oxazolidin-2-one], the pKi was 6.98. As for `N[C@H]1CCCN(Cc2n[nH]c3cnc(-c4cccnc4)cc23)C1` [Example 104, (S)-1-((5-(pyridin-3-yl)-1H-pyrazolo[3,4-c]pyridin-3-yl)methyl)piperidin-3-amine], the figure is 5.52. As for `Cn1cc(-c2cc3c(-c4cccc(N[C@H]5CC[C@@H](N)CC5)n4)n[nH]c3cn2)cn1` [Example 251, (1s,4s)-N1-(6-(5-(1-methyl-1H-pyrazol-4-yl)-1H-pyrazolo[3,4-c]pyridin-3-yl)pyridin-2-yl)cyclohexane-1,4-diamine], the negative-log Ki (pKi) is 10.40. Regarding `NCCC1CCN(c2cccc(-c3n[nH]c4cnc(-c5cccnc5)cc34)n2)C1` (centres unmarked) [Example 333, 2-(1-(6-(5-(pyridin-3-yl)-1H-pyrazolo[3,4-c]pyridin-3-yl)pyridin-2-yl)pyrrolidin-3-yl)ethanamine], the negative-log Ki (pKi) is 9.89. As for `CCn1cc(-c2cc3c(-c4cccc(N5CC[C@H](F)[C@H](N)C5)n4)n[nH]c3cn2)cn1` (relative stereo) [Example 465, cis-1-(6-(5-(1-ethyl-1H-pyrazol-4-yl)-1H-pyrazolo[3,4-c]pyridin-3-yl)pyridin-2-yl)-4-fluoropiperidin-3-amine], the figure is 10.20; as for `c1ccc(-c2n[nH]c3cnc(-c4cn[nH]c4)cc23)cc1` [Example 137, 3-phenyl-5-(1H-pyrazol-4-yl)-1H-pyrazolo[3,4-c]pyridine], 8.34. As for `O=C1CNCCN1c1cc2c(-c3cccc(N4CCNCC4)n3)n[nH]c2cn1` [Example 346, 1-(3-(6-(piperazin-1-yl)pyridin-2-yl)-1H-pyrazolo[3,4-c]pyridin-5-yl)piperazin-2-one], the figure is 6.66; as for `C1=C(c2n[nH]c3cnc(-c4cccnc4)cc23)CCCO1` [Example 281, 3-(3,4-dihydro-2H-pyran-5-yl)-5-(pyridin-3-yl)-1H-pyrazolo[3,4-c]pyridine], 7.54; as for `O=c1cccc(-c2n[nH]c3cnc(-c4cccnc4)cc23)[nH]1` [Example 132, 6-(5-(pyridin-3-yl)-1H-pyrazolo[3,4-c]pyridin-3-yl)pyridin-2(1H)-one], 6.89.

As to `Fc1ccccc1-c1n[nH]c2cnc(-c3cnccc3OC[C@@H]3CCNC3)cc12` [Example 209, (R)-3-(2-fluorophenyl)-5-(4-(pyrrolidin-3-ylmethoxy)pyridin-3-yl)-1H-pyrazolo[3,4-c]pyridine], the pKi was 9.72.

`Cc1ccc(-c2n[nH]c3cnc(-c4cnn(C)c4)cc23)nc1N1CCN(CCS(C)(=O)=O)C(C)(C)C1` [Example 428, 3-(6-(3,3-dimethyl-4-(2-(methylsulfonyl)ethyl)piperazin-1-yl)-5-methylpyridin-2-yl)-5-(1-methyl-1H-pyrazol-4-yl)-1H-pyrazolo[3,4-c]pyridine] gave a negative logarithm of the Ki (pKi) of 9.95.
